Consider 37 compounds from patent publication US20240174680A1, “CDK2 INHIBITORS AND METHODS OF USING THE SAME” (Cedilla Therapeutics, Inc., priority 2021, published 2024).

For experiment [1], the target named is T1, CDK2/Cyclin E1 (Homo sapiens, UniProt P24941). In words: HotSpot kinase inhibition assay (radiometric, Histone H1 substrate). The experiment is classed as biochemical. To be noted: 10 μM ATP, read-out: Kinase Assay (CDK2/CCNE): IC50. Here is the method: Inhibition of CDK2/CCNE1 activities in the presence of compounds of the present disclosure was evaluated using the HotSpot™ assay (proprietary to Reaction Biology Corporation). In the assay, CDK2/Cyclin E1 (Signalchem C29-18G) catalyzed the transfer of radioactive phosphate to amino acid residues of Histone H1 (Sigma, H5505), which are detected radiometrically.
Reactions contained 20 mM HEPES pH 7.5, 10 mM MgCl2, 1 mM EGTA, 2 mM DTT, 0.02% Brij35, 0.02 mg/mL BSA, 0.1 mM Na3VO4, 1% DMSO, 1.5 nM CDK2/Cyclin E1, 10 μM ATP, and 20 μM Histone H1.
CDK2/Cyclin E1 and Histone H1 were mixed in reaction buffer. To this mixture dose titrations of inhibitors in 100% DMSO were added in by acoustic transfer. The compound mixtures were incubated for 20 minutes, then the kinase reactions were initiated by the addition of a mixture of ATP and ^33P ATP for final concentrations of 10 μM total ATP, 20 μM Histone H1, and 1.5 nM CDK2/Cyclin E1. The reactions were carried out for 120 minutes, then spotted on a P81 ion exchange filter paper, and extensively washed with 0.75% phosphoric acid. The resulting radioactive counts were normalized to yield % activity, plotted against compound concentration, and fit to a four-parameter equation to determine the IC50 for each compound.

In experiment [2] the target is T1, CDK2/Cyclin E1. In words: CDK2/Cyclin E1 Caliper LabChip EZ Reader mobility shift assay. The class given is biochemical. Particulars: read-out: Caliper Assay (CDK2/CCNE1): IC50. More on the design: purchased Eurofins 14-475. Put shortly: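 Mobility-shift kinase assay: compound titrations preincubated 30 min with enzyme and ATP, reaction started with 5-FAM-QSPKKG-CONH2 peptide. Final 2.5 nM CDK2/Cyclin E1, 100 μM ATP, 1.5 μM peptide, HEPES pH 7.5; stopped with EDTA after 100 min. IC50 from four-parameter fit of normalized conversion ratio.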

Turning to `CNC(=O)[C@@H](NC(=O)C1CN(C(=O)c2cnn(Cc3ccccn3)c2)CC12CN(C(=O)C1CC1(C)C)C2)[C@@H](C)OCc1ccccc1` (stereo partly drawn) [I-11], the IC50 in experiment [1] was at most 1000 nM; in experiment [2] it was 100 to 1000 nM.

Take `CNC(=O)[C@@H](NC(=O)C1CN(C(=O)c2cnn(Cc3ccccc3)c2)CC12CN(C(=O)C1CC1(C)C)C2)[C@@H](C)OCc1cccc(C#N)c1` (stereo partly drawn) [I-6]: the IC50 in experiment [1] is above 100000 nM.

Turning to `CNC(=O)[C@@H](NC(=O)[C@@H]1CN(C(=O)c2cnn(Cc3ccccc3)c2)CC12CN(C(=O)OC(C)(C)C)C2)[C@@H](C)OCc1ccccc1` [I-3A, tert-butyl (S)-6-(1-benzyl-1H-pyrazole-4-carbonyl)-8-(((2S,3R)-3-(benzyloxy)-1-(methylamino)-1-oxobutan-2-yl)carbamoyl)-2,6-diazaspiro[3.4]octane-2-carboxylate], the IC50 in experiment [1] was at most 1000 nM; in experiment [2] it was 100 to 1000 nM.

As to `CNC(=O)[C@H](COCc1ccccc1)NC(=O)C1CN(C(=O)c2cnn(Cc3ccccc3)c2)CC12CN(C(=O)C1CC1(C)C)C2` (stereo partly drawn) [I-1], the IC50 in experiment [1] is 1000 to 10000 nM.

As to `CC1(C)C[C@@H]1C(=O)N1CC2(CN(C(=O)c3cnn(Cc4ccccc4)c3)C[C@H]2C(=O)N2CCN(CC3CCCCC3)C(=O)C2)C1` [I-253], the IC50 was 1000 to 10000 nM in experiment [1] and 100 to 1000 nM in experiment [2].

As for `COC[C@H]1CCCN(C(=O)[C@@H](NC(=O)[C@@H]2CN(C(=O)c3cncs3)CC23CN(C(=O)[C@H]2CC2(C)C)C3)[C@@H](C)O[C@H](C)C2CCCCC2)C1` [I-367], the IC50 in experiment [1] was at most 1000 nM; in experiment [2], at most 10 nM.

Take `C[C@H](CNC(=O)C1CN(C(=O)c2cnn(Cc3ccccc3)c2)CC12CN(C(=O)C1CC1(C)C)C2)OCc1ccccc1` (stereo partly drawn) [I-7]: the IC50 in experiment [1] is at most 1000 nM.

As for `Cc1ccc(CNC(=O)[C@@H]2CN(C(=O)c3cnn(Cc4ccccc4)c3)CC23CN(C(=O)[C@H]2CC2(C)C)C3)nn1` [I-252], the IC50 is at most 1000 nM in experiment [1] and 100 to 1000 nM in experiment [2].

For the compound `COC[C@H]1CCCN(C(=O)[C@@H](NC(=O)[C@@H]2CN(C(=O)c3cncs3)CC23CN(C(=O)[C@H]2CC2(C)C)C3)[C@@H](C)OCC2CCCCC2)C1` [I-196A, (S)—N-((2S,3R)-3-(cyclohexylmethoxy)-1-((S)-3-(methoxymethyl)piperidin-1-yl)-1-oxobutan-2-yl)-2-((S)-2,2-dimethylcyclopropanecarbonyl)-6-(thiazole-5-carbonyl)-2,6-diazaspiro[3.4]octane-8-carboxamide], the IC50 in experiment [1] was at most 1000 nM; in experiment [2], at most 10 nM.

As to `CNC(=O)[C@@H](NC(=O)[C@H]1CN(C(=O)c2cn[nH]c2)CC12CN(C(=O)C1CC1(C)C)C2)[C@@H](C)OCc1ccccc1` (stereo partly drawn) [I-5B], the IC50 in experiment [1] lay in the range of 1000 to 10000 nM.

In the case of `CNC(=O)[C@@H](NC(=O)C1CN(C(=O)c2cnn(Cc3ccccc3)c2)CC12CN(C(=O)C1CC1(C)C)C2)[C@@H](C)O` (stereo partly drawn) [I-88 mixture], in experiment [1], the IC50 was in the range of 10000 to 100000 nM.

`CC1(C)C[C@@H]1C(=O)N1CC2(CN(C(=O)c3cnn(Cc4ccccc4)c3)C[C@H]2C(=O)NCc2ccc(C3CCCCC3)nn2)C1` [I-377]: the results for the IC50 in experiment [1] and in experiment [2] were at most 1000 nM and 100 to 1000 nM, respectively.

Turning to `CC1(C)C[C@@H]1C(=O)N1CC2(CN(C(=O)c3cnn(Cc4ccccc4)c3)C[C@H]2C(=O)NCc2ccc(Cl)nn2)C1` [I-376], the IC50 in experiment [1] and in experiment [2] was 1000 to 10000 nM throughout.

As for `CNC(=O)[C@@H](NC(=O)[C@H]1CN(C(=O)c2cnn(Cc3ccccc3)c2)CC12CN(C(=O)OC(C)(C)C)C2)[C@@H](C)OCc1ccccc1` [I-3B], the IC50 in experiment [1] is 1000 to 10000 nM; in experiment [2], above 10000 nM.

As to `CNC(=O)[C@@H](NC(=O)C1CN(C(=O)c2cnn(Cc3ccccc3)c2)CC12CN(C(=O)C1CC1(C)C)C2)[C@@H](C)OC` (stereo partly drawn) [I-2, 6-(1-benzyl-1H-pyrazole-4-carbonyl)-2-(2,2-dimethylcyclopropane-1-carbonyl)-N-((2S,3R)-3-methoxy-1-(methylamino)-1-oxobutan-2-yl)-2,6-diazaspiro[3.4]octane-8-carboxamide], in experiment [1], the IC50 fell in the range of 10000 to 100000 nM.

Take `CNC(=O)[C@@H](NC(=O)[C@H]1CN(C(=O)c2cnn(Cc3ccccc3)c2)CC12CN(C(=O)CC1CC1)C2)[C@@H](C)OCc1ccccc1` [I-8B]: the IC50 in experiment [1] lay in the range of 10000 to 100000 nM; in experiment [2], 1000 to 10000 nM.

In the case of `CNC(=O)[C@@H](NC(=O)C1CN(C(=O)c2cnn(Cc3ccccc3)c2)CC12CN(C(=O)C1CC1(C)C)C2)[C@@H](C)OCC1CCCCC1` (mixture of isomers) [I-12], in experiment [1], the IC50 was at most 1000 nM.

For `COC[C@H]1CCCN(C(=O)[C@@H](NC(=O)[C@@H]2CN(C(=O)c3cncs3)CC23CN(C(=O)[C@H]2CC2(C)C)C3)[C@@H](C)O[C@H](C)C2CCCCC2)C1` [I-466], the results for the IC50 in experiment [1] and in experiment [2] were at most 1000 nM and at most 10 nM, respectively.

`CNC(=O)[C@@H](NC(=O)[C@@H]1CN(C(=O)c2cnn(Cc3ccccc3)c2)CC12CN(C(=O)C1CC(C)(C)C1)C2)[C@@H](C)OCc1ccccc1` [I-4A]: the IC50 in experiment [1] is 10000 to 100000 nM.

`CC1(C)C[C@@H]1C(=O)N1CC2(CN(C(=O)c3cnn(Cc4ccccc4)c3)C[C@H]2C(=O)N2CC[C@H](OCC3CCCCC3)C2)C1` [I-256]: the IC50 in experiment [1] was in the range of 1000 to 10000 nM; in experiment [2] it was 100 to 1000 nM.

Turning to `CNC(=O)[C@@H](NC(=O)C1CN(C(=O)c2cnn(C)c2)CC12CN(C(=O)C1CC1(C)C)C2)[C@@H](C)OCc1ccccc1` (stereo partly drawn) [I-14, N-((2S,3R)-3-(benzyloxy)-1-(methylamino)-1-oxobutan-2-yl)-2-(2,2-dimethylcyclopropane-1-carbonyl)-6-(1-methyl-1H-pyrazole-4-carbonyl)-2,6-diazaspiro[3.4]octane-8-carboxamide], the IC50 in experiment [1] and in experiment [2] was 1000 to 10000 nM throughout.

Take `CNC(=O)[C@@H](NC(=O)C1CN(C(=O)c2cnn(Cc3ccncc3)c2)CC12CN(C(=O)C1CC1(C)C)C2)[C@@H](C)OCc1ccccc1` (stereo partly drawn) [I-13]: the IC50 was at most 1000 nM in experiment [1] and 100 to 1000 nM in experiment [2].

As to `CNC(=O)[C@@H](NC(=O)C1CN(C(=O)c2cnn(CC3CCCCC3)c2)CC12CN(C(=O)C1CC1(C)C)C2)[C@@H](C)OCc1ccccc1` (stereo partly drawn) [I-10], the figures for the IC50 in experiment [1] and in experiment [2] were at most 1000 nM and 100 to 1000 nM, respectively.

In the case of `CNC(=O)[C@@H](NC(=O)[C@H]1CN(C(=O)c2cnn(Cc3ccccc3)c2)CC12CN(C(=O)C1CC(C)(C)C1)C2)[C@@H](C)OCc1ccccc1` [I-4B], in experiment [1], the IC50 was above 100000 nM.

For `Cc1ccc(CNC(=O)[C@@H]2CN(C(=O)c3cncs3)CC23CN(C(=O)[C@H]2CC2(C)C)C3)nn1` [I-378], the IC50 in experiment [1] is 10000 to 100000 nM; in experiment [2], above 10000 nM.

Regarding `CNC(=O)[C@@H](NC(=O)[C@@H]1CN(C(=O)c2cn[nH]c2)CC12CN(C(=O)C1CC1(C)C)C2)[C@@H](C)OCc1ccccc1` (stereo partly drawn) [I-5A], the IC50 in experiment [1] is at most 1000 nM.

`C[C@@H](OCC1CCCCC1)[C@H](NC(=O)[C@@H]1CN(C(=O)c2cnn(Cc3ccccc3)c2)CC12CN(C(=O)[C@H]1CC1(C)C)C2)C(C)(C)O` [I-281]: the IC50 in experiment [1] was at most 1000 nM; in experiment [2], at most 10 nM.

With `CNC(=O)[C@@H](NC(=O)[C@H]1CN(C(=O)c2scnc2C(F)(F)F)CC12CN(C(=O)[C@H]1CC1(C)C)C2)[C@@H](C)OCC1CCCCC1` [I-163B], in experiment [2], the IC50 is above 10000 nM.

For the compound `CNC(=O)[C@@H](NC(=O)[C@@H]1CN(C(=O)c2cnn(Cc3ccccc3)c2)CC12CN(C(=O)[C@H]1CC1(C)C)C2)[C@@H](C)N(C)CC1CCCCC1` [I-266], in experiment [2], the IC50 was in the range of 1000 to 10000 nM.

On to `CNC(=O)[C@@H](NC(=O)[C@H]1CN(C(=O)c2cnc(C3CC3)s2)CC12CN(C(=O)[C@H]1CC1(C)C)C2)[C@@H](C)OCC1CCCCC1` [I-178B], for which, in experiment [2], the IC50 was above 10000 nM.

With `C[C@@H](OCc1ccccc1)[C@H](NC(=O)[C@@H]1CN(C(=O)c2cnn(Cc3ccccc3)c2)CC12CN(C(=O)[C@H]1CC1(C)C)C2)C(=O)N1CCC(F)(F)CC1` [I-280], the IC50 in experiment [2] was at most 10 nM.

As for `CCOC(=O)[C@H]1CCCN(C(=O)[C@@H](NC(=O)[C@@H]2CN(C(=O)c3cnn(Cc4ccccc4)c3)CC23CN(C(=O)[C@H]2CC2(C)C)C3)[C@@H](C)OCC2CCCCC2)C1` [I-482], in experiment [2], the IC50 was at most 10 nM.

On to `C[C@@H](OCC1CCCCC1)[C@H](NC(=O)[C@@H]1CN(C(=O)c2cnn(Cc3ccccc3)c2)CC12CN(C(=O)[C@H]1CC1(C)C)C2)C(=O)N1CCC(c2nnco2)CC1` [I-449], for which, in experiment [2], the IC50 was at most 10 nM.

As to `CNC(=O)[C@@H](NC(=O)[C@H]1CN(S(=O)(=O)c2cnn(Cc3ccccc3)c2)CC12CN(C(=O)[C@H]1CC1(C)C)C2)[C@@H](C)OCc1ccccc1` [I-79B], the IC50 in experiment [2] is above 10000 nM.

Regarding `C[C@@H](OCC1CCCCC1)[C@H](NC(=O)[C@@H]1CN(C(=O)c2cnn(Cc3ccccc3)c2)CC12CN(C(=O)[C@H]1CC1(C)C)C2)C(=O)N1CCC(c2ncc[nH]2)CC1` [I-446], the IC50 in experiment [2] is at most 10 nM.

For `CNC(=O)[C@@H](NC(=O)[C@@H]1CN(C(=O)c2cnn(Cc3ccccc3)c2)CC12CN(C(=O)C(C)(C)F)C2)[C@@H](C)OCc1ccccc1` [I-90A], in experiment [2], the IC50 was in the range of 100 to 1000 nM.

`C[C@@H](OCC1CCCCC1)[C@H](NC(=O)C1CN(C(=O)c2cncs2)CC12CN(C(=O)[C@H]1CC1(C)C)C2)C(=O)N1CCC[C@@H](CO)C1` (stereo partly drawn) [I-197]: in experiment [2], the IC50 was at most 10 nM.
